Results published in PMC9313321 (Biomedicines, 2022).
“Also recorded” adds a separate entry of the source.

Experiments:
SH-SY5Y cells [1] = test: Neuroprotection against Aβ42-induced toxicity (MTT reduction); assay type: cell-based, human; details: 1 h pre-incubation + 24 h with Aβ42 1 µM, 4d at 3 µM
Protocol: (§1) SH-SY5Y human neuroblastoma cells (ATCC-CRL-2266) were kept in culture using Dulbecco’s Modified Eagle Medium (DMEM) (Gibco-Invitrogen, Life Technologies Ltd., Waltham, MA, USA) containing 10% heat-inactivated fetal bovine serum (FBS), 50 U mL^−1 penicillin and 50 μg mL^−1 streptomycin. Incubation of the cells occurred at 37 °C in 5% CO2. The toxicity of the compounds was tested through cell viability assays, with cells seeded with a density of 0.24 × 10^6 cells mL^−1. DMSO was used to dissolve each tested compound (4a–4d, 5a, 5b), affording stock solutions with concentrations of 25 mM. Aliquots of these solutions were stored at −20 °C. Concentrations from 1 μM to 10 μM were screened in order to select the highest non-toxic concentration of each compound. Consequently, compounds 4a, 4b and 5b were tested at 1 μM final concentration; compounds 4c and 5a were tested at 2 μM final concentration; compound 4d was tested at a final concentration of 3 μM. The DMSO concentrations in the culture media were lower than 0.05% (v/v) and the viability of the SH-SY5Y cells was not altered in a detectable manner. […]
(§2) The colorimetric MTT (3-(4,5-dimethylthiazol-2-yl)-2,5-diphenyltetrazolium bromide) reduction assay was used to determine cell viability. […] The absorbance of each well was measured at 570 nm. […]
(§3) All data were expressed as means ± SEMs of at least five independent experiments performed in duplicate. […]

SH-SY5Y cells [2] = test: Neuroprotection against Fe/Ascorbate toxicity (MTT reduction); assay type: cell-based, human; details: 1 h pre-incubation + 24 h with Fe 2.5 mM/Asc 5 mM, 5a at 2 µM
Protocol: as §1, §2, §3

Structure (SMILES) | Neuroprotective effect against Aβ42-induced toxicity (cell viability, MTT) (SH-SY5Y cells [1]) | Neuroprotective effect against Fe/Ascorbate toxicity (cell viability, MTT) (SH-SY5Y cells [2])
CCN(C)C(=O)Oc1ccc(CCCNC(=O)c2ccc3nc(-c4ccccc4O)[nH]c3c2)cc1 [Compound 4d, 4-(3-(2-(2-Hydroxyphenyl)-1H-benzo[d]imidazole-6-carboxamido)propyl) Phenyl Ethylmethylcarbamate] | significantly prevented Aβ-induced cell toxicity; also recorded: best neuroprotective capacities | –
CCN(C)C(=O)Oc1cccc(NC(=O)c2cccc3[nH]c(-c4ccccc4O)nc23)c1 [Compound 5a, 3-(2-(2-Hydroxyphenyl)-1H-benzo[d]imidazole-4-carboxamido)phenyl Ethylmethylcarbamate] | – | statistically significant neuroprotective effect; also recorded: best neuroprotective capacities
